Experimental data: US7521438B1, “Combination of loteprednol and β2-adrenoceptor agonists” (MEDA Pharma GmbH & Co. KG, priority 1999, dated 2009)

What was measured:
[1] = Thymus involution in young rats on intrapulmonary powder administration over 29 days; type: in vivo; details: for Toxic dose with significant thymus involution: repeated intrapulmonary administration, 29 days, 1x daily, young rats; for Quotient of toxic dose: therapeutic dose (therapeutic breadth): toxic dose (mg/kg, 29 days) / ID50 (μg/kg, single dose), intrapulmonary, rats
Protocol: In the second experiment, the influence of loteprednol on the thymus development of young rats (21 days old at the start of the experiment) was intensively investigated in comparison to budesonide and fluticasone (see Table 4). After an intrapulmonary long-term administration of the active compound in powder form over the course of 29 days (1× daily) by means of a tube, at the end of the experiment the thymus glands were removed and the organ weight per 100 g of body mass was determined.
(§1) The therapeutic breadth of the corticosteroids was determined with the aid of the quotient of the dose (mg/kg) with significant thymus involution (toxic dose) on repeated intrapulmonary administration over the course of 29 days (1× daily) and the therapeutic dose. The therapeutic dose was determined in the asthma model of late-phase eosinophilia on actively sensitized brown Norway rats. The active compound was administered to the sensitized brown Norway rats under anesthesia intrapulmonarily 2 hours before an allergen provocation (challenge) and 24 hours later the lungs of the animals were lavaged under deep anesthesia. The number of eosinophilic granulocytes in the pulmonary lavage fluid of untreated and active compound-treated rats was then determined. Corticosteroids such as loteprednol inhibit the infiltration of eosinophils into the lung after allergen provocation.

[2] = test system: eosinophilic granulocytes in the pulmonary lavage fluid; test: Late-phase eosinophilia in actively sensitized brown Norway rats, single intrapulmonary administration; type: in vivo; details: 2 h before allergen provocation
Protocol: as §1

TNFα release = test: LPS-induced TNFα release in human blood diluted 1:5 (ELISA); type: cell-based; details: human blood diluted 1:5, LPS 10 μg/ml, 24 h, n = 8
Protocol: In vitro investigations were carried out for influencing the release of the proinflammatory cytokine TNFα in human blood diluted 1:5. Stimulation was carried out using lipopolysaccharide (LPS) of Salmonella abortus equi (10 μg/ml) over the course of 24 h at 37° C. and 5% CO2 in an incubator. The TNFα release was carried out using an ELISA, composed from antibodies from Pharmigen. The results were indicated as the percentage inhibition of LPS-induced TNFα release (Table 1).

[3] = topically administered; cited from earlier work
[4] = topically administered; cited from earlier work; remark: listed apart in the source
[5] = test system: eosinophilic granulocytes in the lung; test: Late-phase eosinophilia in actively sensitized guinea pigs, pulmonary lavage 24 h after allergen provocation; type: in vivo; details: guinea pig

SMILES	Toxic dose with significant thymus involution [1] [µg/kg]	Quotient of toxic dose: therapeutic dose (therapeutic breadth) [1]	Therapeutic dose in late-phase eosinophilia ID50 [2] [µg/kg]	inhibition at 0.001 µM (TNFα release; 0.001 μmol/l) [%]	Detection in the plasma [3]	Increase of intraocular pressure [4]	Inhibition of eosinophilia ([5]; 0.001 mg/kg intrapulmonarily) [%]	Inhibition of eosinophilia ([5]; 0.003 mg/kg intrapulmonarily) [%]	inhibition at 10 µM (TNFα release; 10 μmol/l) [%]
CCCC1O[C@@H]2C[C@H]3[C@@H]4CCC5=CC(=O)C=C[C@]5(C)[C@H]4[C@@H](O)C[C@]3(C)[C@]2(C(=O)CO)O1 (stereo partly drawn) [Budesonide, budesonide]	500	5 ×10^3	0.1						
C[C@@H]1C[C@H]2[C@@H]3C[C@H](F)C4=CC(=O)C=C[C@]4(C)[C@@]3(F)[C@@H](O)C[C@]2(C)[C@@]1(O)C(=O)SCF [Fluticasone, fluticasone]	1000	33 ×10^3	0.03						
CCOC(=O)O[C@]1(C(=O)OCCl)CC[C@H]2[C@@H]3CCC4=CC(=O)C=C[C@]4(C)[C@H]3[C@@H](O)C[C@@]21C [Loteprednol, loteprednol]	20000	45.5 ×10^3	0.44	1	could not be detected in the plasma	does not increase the intraocular pressure	10.5	21.8	
CC(C)(C)NCC(O)c1ccc(O)c(CO)c1 (stereo not drawn) [Salbutamol, salbutamol]									17
